# Experimental data reported in patent US6414157B1, “3-Substituted tetrahydropyridopyrimidinone derivatives, method for producing the same, and their use” (Abbott Laboratories, priority 1997, dated 2002).
# Where a name gives a salt, the structure may show the parent alone.
# How the values were obtained:
# [1] = tested on: serotonin release in the cortex; details: after systemic administration; cited from earlier work
# [2] = tested on: serotonin release in the dorsal raphe nucleus; details: dorsal raphe nucleus of the rat; together with paroxetine; cited from earlier work
melting point,SMILES,serotonin release in the cortex [1],effect of paroxetine on serotonin release [2]
,COc1ccc(NC(=O)c2ccc(-c3ccc(-c4noc(C)n4)cc3C)cc2)cc1N1CCN(C)CC1 [GR 127 935],reduces serotonin release in the cortex,potentiated
181 °C,COc1ccccc1N1CCN(CCn2cnc3c(c2=O)CCN(Cc2ccccc2)C3)CC1 (as salt: hydrochloride),,
198 °C,COc1ccccc1N1CCN(CCCn2cnc3c(c2=O)CN(Cc2ccccc2)CC3)CC1 (as salt: hydrochloride),,
